Molecules are shown by their SMILES.

Assay in all cases: SILAC RP-ABPP
Common to all, as to format: cell-based

The target in test [1] is T1, ALDOA Fructosebisphosphate aldolase A (P04075) (Homo sapiens, UniProt P04075).
T1 construct: shared by both the endogenous and recombinant forms of these proteins; endogenous in cells; host or cells: HEK293T and MDA-MB-231
T1 sequence (P04075 1-364): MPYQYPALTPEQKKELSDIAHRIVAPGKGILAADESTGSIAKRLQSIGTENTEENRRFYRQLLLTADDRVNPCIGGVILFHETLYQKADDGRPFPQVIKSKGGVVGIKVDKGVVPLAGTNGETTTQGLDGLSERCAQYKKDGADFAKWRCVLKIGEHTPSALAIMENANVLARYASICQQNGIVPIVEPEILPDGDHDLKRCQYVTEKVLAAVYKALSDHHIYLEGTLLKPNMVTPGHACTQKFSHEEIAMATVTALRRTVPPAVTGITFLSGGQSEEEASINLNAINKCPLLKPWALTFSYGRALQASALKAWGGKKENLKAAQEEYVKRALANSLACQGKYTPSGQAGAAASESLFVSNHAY
The note with it: SILAC H/L, HEK293T. As for the experimental part: (§1) For MS-based experiments, labelling was performed in a similar manner as described above in Example 2, maintaining the same concentrations of probes. Modifications to this protocol included using isotopically ‘light’ and ‘heavy’ SILAC cells that were also grown to near complete confluence prior to treatment. Isotopically light cells were treated with the non-clickable hydrazine probe (at the same concentration as the probe in ‘enrichment’ experiments) or the probe in the presence of 10-fold excess non-clickable hydrazine probe as a competitor (in ‘competition’ experiments). Isotopically heavy cells were treated with the probe for both types of experiments. These treatments were performed in non-SILAC media. Following treatments, cells were washed with cold PBS to remove the probe-containing media, harvested by scraping, collected by centrifugation (1,400 g, 3 min, 4° C.), washed again by resuspension in cold PBS and frozen as pellets at −80° C. until use.
(§2) The fractionated equimolar mixture of heavy and light soluble proteomes (1-1.5 mg) was diluted to 1 mL in PBS. Click reactions were scaled accordingly (except for biotin-azide) to maintain final concentrations of 0.1 mM TBTA, 1 mM CuSO4, 100 μM biotin-azide (10 mM in DMSO) and 1 mM TCEP. The mixture was vortexed and placed on a rotator at ambient temperature for 1 hour. Sequential addition of and mixture with pre-chilled methanol (MeOH, 2 mL), chloroform (CHCl3, 0.5 mL) and PBS (1 mL) on ice quenched the reaction. The precipitated proteome was centrifuged (5,000 g, 10 min, 4° C.) to fractionate the protein interphase from the organic and aqueous solvent layers. The protein pellet was washed with cold 1:1 MeOH:CHCl3 (3×1 mL), mildly sonicated in cold 4:1 MeOH:CHCl3 (2.5 mL) and pelleted once more by centrifugation (5,000 g, 10 min, 4° C.) to ensure click reagents were efficiently removed.
(§3) Heavy and light parent ion chromatograms associated with successfully identified peptides were extracted and compared using CIMAGE software as previously described^69. At least one ion of a co-eluting heavy-light pair must be accurately identified from a fragmentation event that occurred within the retention time window (±10 min) of parent ion elution. To ensure that the correct pair of peaks is quantified, chromatograms are extracted within a 10 ppm error tolerance of the predicted m/z, the signal-to-noise ratio must be >2.5 and the ‘co-elution correlation score’ and ‘envelope correlation score’ must have R^2 values ≥0.8. In addition, peptides detected as ‘singletons,’ where only the heavy ion of a peptide pair was identified, but for which passed all other filtering parameters, are given a default assigned ratio of ‘20,’ which is defined as any measured ratio that is ≥20.
(§4) To further eliminate false positives and any stochastic variability in the data, protein ratios were then determined by the median peptide ratio derived from three or more unique quantified peptides. Protein ratios that complied with these criteria from a single experiment were then averaged with ratios acquired from ≥3 replicates to provide final values for each type of experiment in both cell lines with both probes. […] Most importantly, there are no robustly measured ratios for proteins identified as probe 1 targets that had measured ratios of ˜1 with probe 2. Probe targets in HEK293T and MDA-MB-231 cells represent data combined from ≥3 independent biological replicates with each cell type performed with several independent batches of synthesized probes over a period of almost two years. […]

Test [2] addresses T2, APLP2 Amyloidlike protein 2 (Q06481) (Homo sapiens, UniProt Q06481).
T2 construct: shared by both the endogenous and recombinant forms of these proteins; endogenous in cells; host or cells: HEK293T and MDA-MB-231
The note with it: SILAC H/L. The procedure: as §1, §2, §3, §4

Test [3] has as its target T3, RARS2 Probable arginine tRNA ligase (Q5T160) (Homo sapiens, UniProt Q5T160).
T3 construct: shared by both the endogenous and recombinant forms of these proteins; endogenous in cells; host or cells: HEK293T and MDA-MB-231
T3 sequence (Q5T160 17-578): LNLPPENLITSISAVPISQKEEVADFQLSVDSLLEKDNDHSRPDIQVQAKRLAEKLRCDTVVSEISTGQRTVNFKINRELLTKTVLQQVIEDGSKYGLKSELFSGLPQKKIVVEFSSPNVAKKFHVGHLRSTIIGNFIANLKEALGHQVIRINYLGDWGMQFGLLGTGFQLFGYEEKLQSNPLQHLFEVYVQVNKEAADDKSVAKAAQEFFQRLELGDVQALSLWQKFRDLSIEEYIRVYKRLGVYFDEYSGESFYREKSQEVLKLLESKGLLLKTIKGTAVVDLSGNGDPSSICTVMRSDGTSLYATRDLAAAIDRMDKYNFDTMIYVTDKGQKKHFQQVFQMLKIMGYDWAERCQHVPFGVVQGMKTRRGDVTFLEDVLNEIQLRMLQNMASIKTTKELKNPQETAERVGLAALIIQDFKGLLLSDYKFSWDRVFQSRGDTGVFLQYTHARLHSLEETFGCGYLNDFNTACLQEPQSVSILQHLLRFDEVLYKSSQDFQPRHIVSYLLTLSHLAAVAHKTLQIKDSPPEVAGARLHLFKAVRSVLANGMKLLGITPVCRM
The note with it: SILAC H/L. As for the experimental part: as §1, §2, §3, §4

T2 sequence (Q06481 32-763): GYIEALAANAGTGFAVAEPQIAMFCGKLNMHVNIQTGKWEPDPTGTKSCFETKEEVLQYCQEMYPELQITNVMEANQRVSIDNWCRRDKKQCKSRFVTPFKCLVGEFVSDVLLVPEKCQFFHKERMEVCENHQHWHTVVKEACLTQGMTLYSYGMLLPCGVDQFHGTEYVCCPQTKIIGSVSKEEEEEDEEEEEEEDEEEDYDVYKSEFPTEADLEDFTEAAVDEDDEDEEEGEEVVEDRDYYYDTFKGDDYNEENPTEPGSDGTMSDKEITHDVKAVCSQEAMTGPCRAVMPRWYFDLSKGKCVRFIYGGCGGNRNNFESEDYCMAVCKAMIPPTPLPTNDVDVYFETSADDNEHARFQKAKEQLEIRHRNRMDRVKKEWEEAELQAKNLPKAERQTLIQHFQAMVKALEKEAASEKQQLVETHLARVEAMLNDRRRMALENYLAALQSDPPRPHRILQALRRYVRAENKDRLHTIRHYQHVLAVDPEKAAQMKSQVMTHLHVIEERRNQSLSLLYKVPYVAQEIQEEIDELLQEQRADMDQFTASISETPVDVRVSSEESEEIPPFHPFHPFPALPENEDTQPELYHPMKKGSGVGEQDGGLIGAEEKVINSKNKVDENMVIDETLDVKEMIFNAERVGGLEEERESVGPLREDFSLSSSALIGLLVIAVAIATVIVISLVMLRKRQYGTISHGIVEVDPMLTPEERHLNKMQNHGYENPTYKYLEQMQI

Turning to `C#CCNN.Cl` [probe 1, prop-2-yn-1-ylhydrazine hydrochloride], the enrichment ratioavg in test [1] (probe 1 3 mM 0.5 h vs probe 3) amounted to 16; in test [2] (probe 1 3 mM 0.5 h vs probe 3, MDA-MB-231), 19; in test [3] (probe 1 3 mM 0.5 h vs probe 3, HEK293T) it was 16. The competition ratioavg in test [1] (probe 1 vs probe 1+10x probe 3) is listed as 3; in test [2] (probe 1 vs probe 1+10x probe 3, MDA-MB-231) it was 7; in test [3] (probe 1 vs probe 1+10x probe 3, HEK293T), 4.
Regarding `C#CCCNC(=O)c1ccc(NN)cc1.Cl` [probe 2, N-(but-3-yn-1-yl)-4-hydrazinylbenzamide hydrochloride], the enrichment ratioavg in test [1] (probe 2 1 mM 0.5 h vs probe 4) amounted to 12; in test [2] (probe 2 1 mM 0.5 h vs probe 4, single experiment, cell line not given), 20. In addition, the competition ratioavg came out at 5 in test [1] (probe 2 vs probe 2+10x probe 4) and 3 in test [3] (probe 2 vs probe 2+10x probe 4, cell line not given).

The record behind these values is patent US11226337B2, “Chemoproteomic profiling of protein electrophilic and oxidative post-translational modifications” (Zenagem, LLC, priority 2017, dated 2022).
